Key:
[1] = target: T1, Rhodopsin kinase GRK1 (Homo sapiens) (UniProt Q15835); assay: Inhibition of GRK1 (unknown origin) assessed as residual activity at 100 nM by KINOMEscan analysis relative to control
T1 sequence (whole entry): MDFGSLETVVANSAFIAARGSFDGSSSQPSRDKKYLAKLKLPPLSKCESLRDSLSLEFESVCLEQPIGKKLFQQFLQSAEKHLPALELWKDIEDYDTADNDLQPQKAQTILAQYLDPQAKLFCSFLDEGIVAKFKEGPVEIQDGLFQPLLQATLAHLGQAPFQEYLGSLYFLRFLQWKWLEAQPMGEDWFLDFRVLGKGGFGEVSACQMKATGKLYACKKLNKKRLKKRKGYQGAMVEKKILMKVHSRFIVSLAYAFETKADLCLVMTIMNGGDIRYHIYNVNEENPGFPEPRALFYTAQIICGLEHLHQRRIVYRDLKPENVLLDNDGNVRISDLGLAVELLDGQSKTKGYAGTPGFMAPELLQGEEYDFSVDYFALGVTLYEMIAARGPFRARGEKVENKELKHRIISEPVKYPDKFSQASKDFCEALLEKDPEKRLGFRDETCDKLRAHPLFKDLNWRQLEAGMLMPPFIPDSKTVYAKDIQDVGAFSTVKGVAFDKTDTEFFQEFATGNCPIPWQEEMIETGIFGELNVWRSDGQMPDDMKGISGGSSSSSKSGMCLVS

[2] = target: Tyrosine-protein kinase BTK (Homo sapiens) (UniProt Q06187); assay: Inhibition of BTK (unknown origin) assessed as residual activity at 100 nM by KINOMEscan analysis relative to control
[3] = target: Death-associated protein kinase 2 (Homo sapiens) (UniProt Q9UIK4); assay: Inhibition of DAPK2 (unknown origin) assessed as residual activity at 100 nM by KINOMEscan analysis relative to control
[4] = target: Cyclin-dependent kinase 2 (Homo sapiens) (UniProt P24941); assay: Inhibition of CDK2 (unknown origin) assessed as residual activity at 100 nM by KINOMEscan analysis relative to control
[5] = target: T2, Serine/threonine-protein kinase D1 (Homo sapiens) (UniProt Q15139); assay: Inhibition of PRKD1 (unknown origin) assessed as residual activity at 100 nM by KINOMEscan analysis relative to control
T2 sequence (whole entry): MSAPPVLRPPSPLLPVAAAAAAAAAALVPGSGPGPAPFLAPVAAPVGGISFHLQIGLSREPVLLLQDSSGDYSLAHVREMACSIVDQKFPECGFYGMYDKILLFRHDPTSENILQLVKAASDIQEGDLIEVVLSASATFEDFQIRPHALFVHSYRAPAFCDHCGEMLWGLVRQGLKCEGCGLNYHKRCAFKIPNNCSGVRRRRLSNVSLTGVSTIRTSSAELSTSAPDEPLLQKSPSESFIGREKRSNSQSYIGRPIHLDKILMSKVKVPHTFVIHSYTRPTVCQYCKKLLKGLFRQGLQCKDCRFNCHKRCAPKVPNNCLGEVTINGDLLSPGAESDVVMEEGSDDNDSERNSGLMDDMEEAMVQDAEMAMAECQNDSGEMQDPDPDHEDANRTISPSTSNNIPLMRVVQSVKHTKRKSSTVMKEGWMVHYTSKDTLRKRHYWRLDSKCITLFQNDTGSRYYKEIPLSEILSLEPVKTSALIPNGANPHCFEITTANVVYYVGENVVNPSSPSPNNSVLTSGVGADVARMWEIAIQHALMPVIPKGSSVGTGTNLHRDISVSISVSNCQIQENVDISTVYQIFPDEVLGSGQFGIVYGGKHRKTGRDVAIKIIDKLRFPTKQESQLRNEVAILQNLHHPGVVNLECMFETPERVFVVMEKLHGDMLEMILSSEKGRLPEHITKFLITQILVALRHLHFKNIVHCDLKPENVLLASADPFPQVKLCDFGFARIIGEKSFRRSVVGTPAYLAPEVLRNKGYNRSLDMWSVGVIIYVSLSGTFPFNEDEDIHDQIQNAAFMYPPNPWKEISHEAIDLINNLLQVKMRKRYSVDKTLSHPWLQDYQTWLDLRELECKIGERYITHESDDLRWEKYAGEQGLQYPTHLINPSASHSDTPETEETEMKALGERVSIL

[6] = target: Mitogen-activated protein kinase kinase kinase 11 (Homo sapiens) (UniProt Q16584); assay: Inhibition of MLK3 (unknown origin) assessed as residual activity at 100 nM by KINOMEscan analysis relative to control
[7] = target: Serine/threonine-protein kinase PLK1 (Homo sapiens) (UniProt P53350); assay: Inhibition of PLK1 (unknown origin) assessed as residual activity at 100 nM by KINOMEscan analysis relative to control
[8] = target: Myosin light chain kinase 3 (Homo sapiens) (UniProt Q32MK0); assay: Inhibition of MLCK (unknown origin) assessed as residual activity at 100 nM by KINOMEscan analysis relative to control
[9] = target: Homeodomain-interacting protein kinase 2 (Homo sapiens) (UniProt Q9H2X6); assay: Inhibition of HIPK2 (unknown origin) assessed as residual activity at 100 nM by KINOMEscan analysis relative to control
[10] = tested on: Tyrosine-protein kinase ABL1 (Homo sapiens), P00519 [H396P]; assay: Inhibition of nonphosphorylated ABL1 H396P mutant (unknown origin) assessed as residual activity at 100 nM by KINOMEscan analysis relative to control
[11] = tested on: Epidermal growth factor receptor (Homo sapiens), P00533 [L861Q]; assay: Inhibition of EGFR L861Q mutant (unknown origin) assessed as residual activity at 100 nM by KINOMEscan analysis relative to control
[12] = target: Eukaryotic translation initiation factor 2-alpha kinase 1 (Homo sapiens) (UniProt Q9BQI3); assay: Inhibition of EIF2AK1 (unknown origin) assessed as residual activity at 100 nM by KINOMEscan analysis relative to control
[13] = target: Ribosomal protein S6 kinase alpha-2 (Homo sapiens) (UniProt Q15349); assay: Inhibition of N-terminal RSK3 […] domain 1 (unknown origin) assessed as residual activity at 100 nM by KINOMEscan analysis relative to control
[14] = tested on: Phosphatidylinositol 4,5-bisphosphate 3-kinase catalytic subunit alpha isoform (Homo sapiens), P42336 [Q546K]; assay: Inhibition of PIK3CA Q546K mutant (unknown origin) assessed as residual activity at 100 nM by KINOMEscan analysis relative to control
[15] = target: Ribosomal protein S6 kinase alpha-2 (Homo sapiens) (UniProt Q15349); assay: Inhibition of C-terminal RSK3 […] domain 2 (unknown origin) assessed as residual activity at 100 nM by KINOMEscan analysis relative to control
[16] = target: Focal adhesion kinase 1 (Homo sapiens) (UniProt Q05397); assay: Inhibition of FAK (unknown origin) assessed as residual activity at 100 nM by KINOMEscan analysis relative to control
[17] = target: Insulin receptor-related protein (Homo sapiens) (UniProt P14616); assay: Inhibition of INSRR (unknown origin) assessed as residual activity at 100 nM by KINOMEscan analysis relative to control
Chain of Insulin receptor-related protein (Homo sapiens) (P14616 27-742 limits assumed): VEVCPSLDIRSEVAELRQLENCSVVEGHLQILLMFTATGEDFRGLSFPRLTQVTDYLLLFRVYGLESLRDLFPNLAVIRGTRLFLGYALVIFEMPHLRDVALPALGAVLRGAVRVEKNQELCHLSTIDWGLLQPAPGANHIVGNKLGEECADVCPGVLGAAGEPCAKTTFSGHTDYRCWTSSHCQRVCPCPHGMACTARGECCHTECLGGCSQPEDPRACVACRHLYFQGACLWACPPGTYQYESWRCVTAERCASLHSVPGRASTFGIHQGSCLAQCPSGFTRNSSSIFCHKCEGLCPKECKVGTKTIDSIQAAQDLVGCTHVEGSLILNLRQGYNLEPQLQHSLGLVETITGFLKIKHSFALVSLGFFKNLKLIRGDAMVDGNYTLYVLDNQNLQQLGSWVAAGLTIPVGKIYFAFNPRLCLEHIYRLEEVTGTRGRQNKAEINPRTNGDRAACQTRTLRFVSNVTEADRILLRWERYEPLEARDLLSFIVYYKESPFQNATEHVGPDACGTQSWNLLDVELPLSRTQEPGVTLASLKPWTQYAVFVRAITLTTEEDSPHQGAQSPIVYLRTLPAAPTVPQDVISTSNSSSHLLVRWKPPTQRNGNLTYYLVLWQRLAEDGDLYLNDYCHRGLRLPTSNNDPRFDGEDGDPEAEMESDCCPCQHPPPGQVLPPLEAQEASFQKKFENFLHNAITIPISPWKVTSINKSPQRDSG
Chain of Insulin receptor-related protein (Homo sapiens) (P14616 747-1297 limits assumed): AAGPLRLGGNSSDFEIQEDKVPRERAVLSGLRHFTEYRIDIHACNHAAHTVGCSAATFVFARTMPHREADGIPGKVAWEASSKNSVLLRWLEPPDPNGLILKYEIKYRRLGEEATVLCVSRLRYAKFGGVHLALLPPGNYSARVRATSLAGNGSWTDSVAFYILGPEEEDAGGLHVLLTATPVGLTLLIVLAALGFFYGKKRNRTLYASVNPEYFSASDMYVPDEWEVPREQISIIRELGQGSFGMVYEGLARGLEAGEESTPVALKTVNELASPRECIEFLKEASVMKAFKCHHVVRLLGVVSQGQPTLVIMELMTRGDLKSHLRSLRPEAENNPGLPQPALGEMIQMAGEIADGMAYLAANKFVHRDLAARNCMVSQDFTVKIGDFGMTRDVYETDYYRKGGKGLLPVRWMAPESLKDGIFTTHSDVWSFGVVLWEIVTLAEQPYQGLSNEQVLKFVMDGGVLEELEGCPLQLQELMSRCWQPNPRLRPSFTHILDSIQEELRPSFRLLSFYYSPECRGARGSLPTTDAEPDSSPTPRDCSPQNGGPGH

Chain of Ribosomal protein S6 kinase alpha-2 (Homo sapiens) (Q15349 whole entry, canonical isoform): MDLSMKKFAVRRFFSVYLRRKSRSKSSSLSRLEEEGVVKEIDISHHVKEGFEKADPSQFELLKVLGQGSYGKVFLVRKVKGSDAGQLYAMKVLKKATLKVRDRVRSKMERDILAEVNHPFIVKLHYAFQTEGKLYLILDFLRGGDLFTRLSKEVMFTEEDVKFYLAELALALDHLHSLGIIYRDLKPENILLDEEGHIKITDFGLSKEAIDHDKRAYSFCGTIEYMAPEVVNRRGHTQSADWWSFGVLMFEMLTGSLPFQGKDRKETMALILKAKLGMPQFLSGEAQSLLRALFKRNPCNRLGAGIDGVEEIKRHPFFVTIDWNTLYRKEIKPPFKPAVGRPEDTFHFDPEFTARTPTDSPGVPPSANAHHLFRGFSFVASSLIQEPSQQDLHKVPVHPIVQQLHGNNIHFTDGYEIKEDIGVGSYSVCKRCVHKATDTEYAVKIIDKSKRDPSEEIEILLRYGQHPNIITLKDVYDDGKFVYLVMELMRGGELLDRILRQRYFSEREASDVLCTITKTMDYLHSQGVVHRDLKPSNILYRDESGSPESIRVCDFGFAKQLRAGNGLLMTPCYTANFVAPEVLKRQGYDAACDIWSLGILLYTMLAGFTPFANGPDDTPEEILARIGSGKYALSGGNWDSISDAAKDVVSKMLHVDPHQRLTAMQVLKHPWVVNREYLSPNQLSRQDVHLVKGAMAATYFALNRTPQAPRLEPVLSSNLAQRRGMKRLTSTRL
Chain of Tyrosine-protein kinase BTK (Homo sapiens) (Q06187 whole entry): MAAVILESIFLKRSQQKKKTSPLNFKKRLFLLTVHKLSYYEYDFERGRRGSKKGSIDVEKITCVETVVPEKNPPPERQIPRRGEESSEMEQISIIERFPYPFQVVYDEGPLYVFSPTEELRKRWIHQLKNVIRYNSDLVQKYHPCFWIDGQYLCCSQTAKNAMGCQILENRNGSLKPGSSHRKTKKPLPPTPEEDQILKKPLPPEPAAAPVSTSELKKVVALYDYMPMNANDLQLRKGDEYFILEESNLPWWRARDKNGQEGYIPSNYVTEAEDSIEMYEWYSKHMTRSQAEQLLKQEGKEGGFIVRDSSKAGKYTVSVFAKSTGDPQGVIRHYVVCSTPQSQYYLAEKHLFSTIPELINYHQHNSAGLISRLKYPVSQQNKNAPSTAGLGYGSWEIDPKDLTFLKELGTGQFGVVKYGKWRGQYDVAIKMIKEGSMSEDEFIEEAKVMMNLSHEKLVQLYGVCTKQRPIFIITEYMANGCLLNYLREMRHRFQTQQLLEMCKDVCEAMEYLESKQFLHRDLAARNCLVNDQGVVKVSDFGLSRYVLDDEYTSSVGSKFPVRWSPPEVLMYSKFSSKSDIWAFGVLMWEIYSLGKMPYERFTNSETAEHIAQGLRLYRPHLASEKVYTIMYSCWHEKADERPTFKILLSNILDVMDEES
Chain of Eukaryotic translation initiation factor 2-alpha kinase 1 (Homo sapiens) (Q9BQI3 whole entry): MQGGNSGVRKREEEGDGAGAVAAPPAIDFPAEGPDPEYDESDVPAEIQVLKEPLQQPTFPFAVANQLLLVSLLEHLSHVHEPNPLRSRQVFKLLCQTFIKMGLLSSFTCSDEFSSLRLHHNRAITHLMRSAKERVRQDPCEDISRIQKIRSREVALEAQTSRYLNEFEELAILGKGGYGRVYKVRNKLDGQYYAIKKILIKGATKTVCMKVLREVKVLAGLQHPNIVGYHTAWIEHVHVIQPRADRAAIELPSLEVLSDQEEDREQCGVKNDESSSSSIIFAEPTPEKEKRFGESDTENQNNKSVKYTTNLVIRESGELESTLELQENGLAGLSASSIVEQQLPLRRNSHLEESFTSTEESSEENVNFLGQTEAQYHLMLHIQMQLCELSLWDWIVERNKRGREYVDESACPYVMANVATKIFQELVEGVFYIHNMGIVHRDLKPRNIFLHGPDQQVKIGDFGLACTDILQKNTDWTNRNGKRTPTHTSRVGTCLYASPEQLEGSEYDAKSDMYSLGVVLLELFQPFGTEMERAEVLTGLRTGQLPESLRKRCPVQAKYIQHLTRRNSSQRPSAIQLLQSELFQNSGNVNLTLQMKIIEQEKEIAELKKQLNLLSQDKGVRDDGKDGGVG
Chain of Homeodomain-interacting protein kinase 2 (Homo sapiens) (Q9H2X6 whole entry, looked up): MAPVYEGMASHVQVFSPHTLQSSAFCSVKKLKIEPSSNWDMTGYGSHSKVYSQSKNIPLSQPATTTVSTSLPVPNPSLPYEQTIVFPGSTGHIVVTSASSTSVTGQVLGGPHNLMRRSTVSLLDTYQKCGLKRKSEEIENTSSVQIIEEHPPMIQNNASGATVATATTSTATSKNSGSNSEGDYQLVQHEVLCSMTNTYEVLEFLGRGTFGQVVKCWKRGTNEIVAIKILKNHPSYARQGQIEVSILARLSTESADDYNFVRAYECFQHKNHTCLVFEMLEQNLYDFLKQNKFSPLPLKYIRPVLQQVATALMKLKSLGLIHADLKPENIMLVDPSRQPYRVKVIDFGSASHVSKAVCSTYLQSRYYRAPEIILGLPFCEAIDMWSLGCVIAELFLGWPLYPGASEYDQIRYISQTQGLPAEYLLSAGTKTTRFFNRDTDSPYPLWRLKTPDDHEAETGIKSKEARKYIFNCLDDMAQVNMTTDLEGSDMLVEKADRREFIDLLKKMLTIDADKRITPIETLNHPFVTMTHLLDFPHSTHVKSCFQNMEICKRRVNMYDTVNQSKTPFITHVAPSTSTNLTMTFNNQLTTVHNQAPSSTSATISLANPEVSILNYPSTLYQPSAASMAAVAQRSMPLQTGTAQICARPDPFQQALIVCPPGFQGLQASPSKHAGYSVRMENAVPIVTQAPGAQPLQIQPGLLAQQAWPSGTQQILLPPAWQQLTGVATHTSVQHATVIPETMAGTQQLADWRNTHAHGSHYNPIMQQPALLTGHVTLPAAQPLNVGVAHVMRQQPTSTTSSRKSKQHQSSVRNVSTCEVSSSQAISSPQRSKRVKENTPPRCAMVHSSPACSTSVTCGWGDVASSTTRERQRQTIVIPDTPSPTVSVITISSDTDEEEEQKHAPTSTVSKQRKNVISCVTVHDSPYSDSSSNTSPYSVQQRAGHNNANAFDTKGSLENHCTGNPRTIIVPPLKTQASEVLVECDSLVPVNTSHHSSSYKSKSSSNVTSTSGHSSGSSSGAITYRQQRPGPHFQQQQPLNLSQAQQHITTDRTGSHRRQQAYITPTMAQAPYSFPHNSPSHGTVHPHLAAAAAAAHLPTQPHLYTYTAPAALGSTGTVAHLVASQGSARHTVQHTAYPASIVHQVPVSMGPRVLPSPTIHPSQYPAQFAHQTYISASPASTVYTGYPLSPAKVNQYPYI
Chain of Death-associated protein kinase 2 (Homo sapiens) (Q9UIK4 whole entry, looked up): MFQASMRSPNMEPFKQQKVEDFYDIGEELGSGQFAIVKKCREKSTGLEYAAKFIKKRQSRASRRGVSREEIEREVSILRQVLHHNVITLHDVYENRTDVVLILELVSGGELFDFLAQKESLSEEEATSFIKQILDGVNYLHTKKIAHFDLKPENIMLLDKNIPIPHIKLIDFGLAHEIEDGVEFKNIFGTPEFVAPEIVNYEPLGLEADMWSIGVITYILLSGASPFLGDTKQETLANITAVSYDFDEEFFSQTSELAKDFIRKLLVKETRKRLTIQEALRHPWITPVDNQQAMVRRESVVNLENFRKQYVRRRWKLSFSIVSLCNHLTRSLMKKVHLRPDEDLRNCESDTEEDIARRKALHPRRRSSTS

Question: How did the Activity [1] turn out when COc1cc2ncnc(N[C@H](C)c3cccc4ccccc34)c2cc1OC was run?
Answer: Its Activity is 96%.

Question: And the Activity [2]?
Answer: Its Activity is 95%.

Question: And the Activity [3]?
Answer: Its Activity is 100%.

Question: And the Activity [4]?
Answer: Its Activity is 100%.

Question: And the Activity [5]?
Answer: The Activity was 84%.

Question: And the Activity [6]?
Answer: The Activity was 100%.

Question: What about the Activity [7] of the same molecule?
Answer: The Activity was 85%.

Question: And the Activity [8]?
Answer: The Activity was 97%.

Question: What about the Activity [9] of the same molecule?
Answer: The Activity was 93%.

Question: And the Activity [10]?
Answer: The Activity was 100%.

Question: What about the Activity [11] of the same molecule?
Answer: The Activity was 95%.

Question: What about the Activity [12] of the same molecule?
Answer: The Activity was 67%.

Question: What about the Activity [13] of the same molecule?
Answer: The Activity was 100%.

Question: What about the Activity [14] of the same molecule?
Answer: Its Activity is 70%.

Question: And the Activity [15]?
Answer: Its Activity is 91%.

Question: And the Activity [16]?
Answer: Its Activity is 100%.

Question: And the Activity [17]?
Answer: Its Activity is 92%.
